Results published in patent US12678451B2, “Cannabinoid and omega fatty acid compositions and methods of using” (GreenWay Herbal Products, LLC, priority 2019, dated 2026).

Assays:
DPPH antioxidant assay = type: biochemical
Protocol: The ability of the cannabinoids to act as potential antioxidants was assessed using the 2,2-diphenyl-1-picrylhydrazyl (DPPH) antioxidant assay. The cannabinoids CBDA, CBD, CBDVA, CBDV, CBG, THCV, and the 1:1 CBD:CBDA mixture had the highest antioxidant activities with radical scavenging activities of 38.19%, 48.00%, 43.81%, 44.21%, 44.28%, 45.71%, and 43.74%, respectively.
The 2,2-diphenyl-1-picrylhydrazyl (DPPH) free radical (Alfa Aesar) was prepared at 0.1 mM in ethanol. The cannabinoids were tested at a final concentration of 100 uM. 2 uL of 7.5 mM stock solutions of the cannabinoids to be tested in DMSO were added to 148 uL of 0.1 mM DPPH to achieve a final concentration of 100 μM in the assay. Ascorbic acid (Thermo Scientific) at a final concentration of 10 mg/ml was used as a positive control. The reaction mixture was incubated in the dark at room temperature for 1 hour, the absorbance of the mixture was read at 517 nm using a Spectra Max 5M microplate reader (Molecular Devices, LLC, Sunnyvale, Calif., USA) and the absorbance was converted to percent radical scavenging activity (% RSA) using the following formula: % RSA=[(Absorbance of the control−Absorbance of the sample)/(Absorbance of the control)]×100.
Free radical production occurs when the immune system is activated and antioxidants represent potential effective treatments for inflammatory conditions and autoimmune diseases. […] The DPPH antioxidant assay can be used to measure the ability of a compound to scavenge free radicals by measuring the ability of compounds to hydrogenate and reduce DPPH. The DPPH assay was conducted on CBCA, CBDA, CBDVA, CBGA, CBLA, CBNA, THCVA, and their decarboxylated derivatives as well as the 1:1 CBD:CBDA mixture.

[1] = tested on: cytokine levels in differentiated THP-1 cells treated with LPS; experiment: THP-1 human cellular LPS cytokine assay, three independent experiments, total averaged suppression; settings: for inhibition at 2 µM: Homo sapiens, THP-1, 4 h, read-out: % Cytokine Suppression (total averaged)
Protocol: Cells were seeded onto 24-, or 12-well plates and incubated for 48 hours to 72 hours to allow for differentiation. […] Supernatants were collected for quantification of human cytokine levels to assess the cytokine response. Cells remaining after the supernatant collection were tested to ensure they had at least 90% viability as determined by Alamar Blue assays. To conduct the Alamar Blue assays, supernatants were replaced with culture medium containing 1× Alamar Blue reagent and incubated overnight. Cell viability was assessed by measuring relative fluorescent units (RFU) on the SpectraMax M2e microplate reader (Molecular Devices Inc., Sunnyvale, Calif., USA) at Excitation 560 nm and Emission 590 nm. Controls included untreated cells with DMSO at the same concentration as the treated cells, LPS stimulated cells with DMSO at the same concentration as the treated cells and LPS stimulated cell with the various treatments. The levels of 42 of the most common human cytokines (Eve Technologies, Calgary, Canada Table 6) were determined by multi-plex analysis.
For this reason, the level of cytokine suppression was determined for each cytokine by each cannabinoid that was tested and the total averaged suppression for each cannabinoid was determined by dividing the total suppression by the number of the cytokines that were analyzed.

[2] = tested on: differentiated U-937 cells; experiment: Human cellular U-937 autophagy induction assay (anti-LC3); type: cell-based; settings: for activation at 1 µM: Homo sapiens, U-937, 12 h, read-out: Induction of autophagy with respect to the untreated control
Protocol: The induction of autophagy was monitored using anti-LC3 antibodies to detect LC3 on the autophagosome in human U-937 pro-monocytic histiocytic lymphoma cells (ATCC, Manassas, Va., USA), which generate morphologies characteristic of macrophages upon induction by various stimuli. U-937 cells were cultured in RPMI-1640 medium with L-glutamine and sodium bicarbonate (Sigma-Aldrich, St Louis, Mo.) supplemented with 10% fetal bovine serum (FBS) and 1% penicillin in 25 cm2 tissue flasks at 37° C. in a 5% CO2 humidified atmosphere and passaged every 2-3 days. U-937 cells were seeded in 96 well plates at 5×10^5 cells/mL and stimulated with 100 ng/mL PMA to induce differentiation for 24 hours. The cells were then treated with the various cannabinoids at 1.0 μM concentrations for 12 hours. 30 μM chloroquine was used as a positive control. After treatment, the cells were fixed using 3.7% formaldehyde in PBS for 15 minutes at room temperature and washed with PBS to remove the fixative. Permeabilization reagent (0.2% Triton X-100 in PBS) (Sigma-Aldrich) was added, the cells were incubated for 15 minutes at room temperature and then the cells were washed with PBS to remove the permeabilization reagent. LC3B rabbit polyclonal antibody (Invitrogen) was added at a final concentration of 0.5 μg/ml for 1 hour at room temperature and the cells were washed with PBS remove the primary antibody. Secondary conjugated goat anti-rabbit polyclonal antibody (Thermo Scientific) was then added at a final concentration of 2.0 μg/ml for 1 hour at room temperature. The cells were washed, Hoechst dye was added to stain the nucleus and the cells were imaged using an Arrayscan VTI high-content screening (HCS) reader (Thermo Scientific) with the appropriate filters and the data was analyzed using the vHCS Scan software.
Chloroquine at a concentration of 30 μM was included as a positive control. The ability to induce autophagy was determined as a percentage with respect to the untreated control.

Which “% RSA (radical scavenging activity)” value (DPPH antioxidant assay; 10 mg/ml, positive control) does the source give for O=C1O[C@H]([C@@H](O)CO)C(O)=C1O [Ascorbic acid, reference compound] here?
Its value is 94.00%.

Which inhibition at 2 µM [1] does the source give for CCCCCc1cc(O)c2c(c1)OC(C)(CCC=C(C)C)C=C2 (stereo not drawn) [CBC, 2-Methyl-2-(4-methyl-3-penten-1-yl)-7-pentyl-2H-chromen-5-ol] here?
Its inhibition at 2 µM is 22.6%.

And the “% RSA (radical scavenging activity)” value (DPPH antioxidant assay; 100 μM, 1 hour)?
The value was 31.95%.

What about the “Fluorescence (LC3)” value ([2]; 1.0 μM, 12 hours) of the same molecule?
Its value is 47.84.

What about the activation at 1 µM [2] of the same molecule?
Its activation at 1 µM is -0.85%.

For CCCCCc1cc2c(c(O)c1C(=O)O)C=CC(C)(CCC=C(C)C)O2 (stereo not drawn) [CBCA, 5-Hydroxy-2-methyl-2-(4-methyl-3-penten-1-yl)-7-pentyl-2H-chromene-6-carboxylic acid], which “effectiveness at reducing elevated cytokine levels relative to dexamethasone” value [1] is on record?
The value was “at least half as effective as dexamethasone”.

What about the inhibition at 2 µM [1] of the same molecule?
Its inhibition at 2 µM is 34.6%.

And the “% RSA (radical scavenging activity)” value (DPPH antioxidant assay; 100 μM, 1 hour)?
The value was 19.02%.

What about the “Fluorescence (LC3)” value ([2]; 1.0 μM, 12 hours) of the same molecule?
The value was 42.61.

And the activation at 1 µM [2]?
The activation at 1 µM was -11.7%.

Which results are given for C=C(C)C1CCC(C)=CC1c1c(O)cc(CCC)cc1O (stereo not drawn) [CBDV, 2-(6-Isopropenyl-3-methyl-2-cyclohexen-1-yl)-5-propyl-1,3-benzenediol]?
effectiveness at reducing elevated cytokine levels relative to dexamethasone [1]: at least half as effective as dexamethasone; inhibition at 2 µM [1]: 36.7%; radical scavenging activity compared to the untreated control (DPPH antioxidant assay; 100 μM): at least two-fold; % RSA (radical scavenging activity) (DPPH antioxidant assay; 100 μM, 1 hour): 44.21%; Fluorescence (LC3) ([2]; 1.0 μM, 12 hours): 38.19; activation at 1 µM [2]: -20.9%

Which results are given for C=C(C)[C@@H]1CCC(C)=C[C@H]1c1c(O)cc(CCC)c(C(=O)O)c1O [CBDVA, 2,4-Dihydroxy-3-[(1R,6R)-6-isopropenyl-3-methyl-2-cyclohexen-1-yl]-6-propylbenzoic acid]?
effectiveness at reducing elevated cytokine levels relative to dexamethasone [1]: at least half as effective as dexamethasone; inhibition at 2 µM [1]: 32.4%; radical scavenging activity compared to the untreated control (DPPH antioxidant assay; 100 μM): at least two-fold; % RSA (radical scavenging activity) (DPPH antioxidant assay; 100 μM, 1 hour): 43.81%; Fluorescence (LC3) ([2]; 1.0 μM, 12 hours): 39.29; activation at 1 µM [2]: -18.6%

For CCCCCc1cc(O)c(C/C=C(\C)CCC=C(C)C)c(O)c1 [CBG, 2-[(2E)-3,7-Dimethyl-2,6-octadien-1-yl]-5-pentyl-1,3-benzenediol], which “effectiveness at reducing elevated cytokine levels relative to dexamethasone” value [1] is on record?
The value was “at least half as effective as dexamethasone”.

What about the inhibition at 2 µM [1] of the same molecule?
The inhibition at 2 µM was 35.8%.

And the “radical scavenging activity compared to the untreated control” value (DPPH antioxidant assay; 100 μM)?
The value was “at least two-fold”.

What about the “% RSA (radical scavenging activity)” value (DPPH antioxidant assay; 100 μM, 1 hour) of the same molecule?
Its value is 44.28%.

What about the “Fluorescence (LC3)” value ([2]; 1.0 μM, 12 hours) of the same molecule?
Its value is 37.35.

And the activation at 1 µM [2]?
The activation at 1 µM was -22.6%.

Which results are given for CCCCCc1cc(O)c(C/C=C(\C)CCC=C(C)C)c(O)c1C(=O)O [CBGA, 3-[(2E)-3,7-Dimethyl-2,6-octadien-1-yl]-2,4-dihydroxy-6-pentylbenzoic acid]?
effectiveness at reducing elevated cytokine levels relative to dexamethasone [1]: at least half as effective as dexamethasone; inhibition at 2 µM [1]: 34.3%; % RSA (radical scavenging activity) (DPPH antioxidant assay; 100 μM, 1 hour): 26.84%; Fluorescence (LC3) ([2]; 1.0 μM, 12 hours): 37.47; activation at 1 µM [2]: -22.3%

With CCCCCc1cc(O)c2c(c1)OC1(C)CCC3C1C2C3(C)C (stereo not drawn) [CBL, 1,1,3a-Trimethyl-6-pentyl-1a,2,3,3a,8b,8c-hexahydro-1H-4-oxabenzo[f]cyclobuta[cd]inden-8-ol] as the molecule, how does the “effectiveness at reducing elevated cytokine levels relative to dexamethasone” value [1] read?
Its value is “at least half as effective as dexamethasone”.

And the inhibition at 2 µM [1]?
Its inhibition at 2 µM is 43.6%.

What about the “% RSA (radical scavenging activity)” value (DPPH antioxidant assay; 100 μM, 1 hour) of the same molecule?
Its value is 30.84%.

And the “Fluorescence (LC3)” value ([2]; 1.0 μM, 12 hours)?
The value was 76.86.

And the activation at 1 µM [2]?
The activation at 1 µM was 59.3%.

With CCN(CC)CCCC(C)Nc1ccnc2cc(Cl)ccc12 (stereo not drawn) [Chloroquine, chloroquine, reference compound] as the molecule, how does the “Fluorescence (LC3)” value ([2]; 30 uM, positive control) read?
Its value is 111.20.
